Series [1] deals with T1, Fak (Homo sapiens, UniProt Q05397). As to the kind of experiment: Kinase activity assay (Reaction Biology Corp.). More on the design: purchased Reaction Biology Corp. (contract assay service). Conditions: 10 μM ATP, n = 2. The series is classed as biochemical. As for the experimental part: Reactions were carried out at 10 μM ATP. IC50 values were calculated using Prism 7.0 (GraphPad).

Series [2] addresses T1, Fak. Put plainly: Fak degradation, immunoblotting in PC3 cells. Conditions: PC3 cells, 24 hour treatment; for Dmax: PC-3, degradation maximum, n = 3. The series is classed as cell-based. As for the experimental part:
PC3 cells were cultured in F12-K (Kaighn's Modification of Ham's F-12 Medium), supplemented with 10% fetal bovine serum (FBS) and 1% penicillin-streptomycin at 37° C. and 5% CO2.
If not indicated otherwise, cells were seeded and grown to 80% confluency and were treated with compound or control for 24 hours. […] After 20 minutes the mixture was spun down at 16,000×g for 10 minutes at 4° C. to pellet insoluble materials. Protein concentration of supernatants were determined via BCA assay (Thermo Fisher) before addition of NuPAGE sample buffer containing 5% β-Me and boiling at 95° C. for 10 minutes. Equal amounts of protein were subjected to SDS-PAGE and subsequent electrophoretic transfer onto nitrocellulose membrane. […] Immunoblots were developed using enhanced chemiluminescence and visualized using a Bio-Rad Chemi-Doc MP Imaging System and quantitated with Image Lab v.5.2.1 software (Bio-Rad Laboratories). Data analysis and statistics was performed using Prism 7.0 (GraphPad).
Examination of Target Protein (Fak) Degradation.

Series [3] can be described thus: Pharmacokinetics of intraperitoneal or intravenous injection in CD1 mice. The series is classed as in vivo. As for the experimental part:
The pharmacokinetics of exemplary compounds 103, 107, 100, 101, and 102 was examined for intraperitoneal and intravenous administration. The desired serial concentrations of working solutions were achieved by diluting stock solution (1 mg/mL in DMSO) of analyte with methanol. In particular, 20 μL of working solutions (1, 2, 5, 10, 50, 100, 500, 1000, 2000 ng/mL) were added to 20 μL of the blank CD1 mice plasma to achieve calibration standards of 1-2000 ng/mL (1, 2, 5, 10, 50, 100, 500, 1000, 2000 ng/mL) in a total volume of 40 μL. Dose of IV and IP were diluted by 1000 fold and 10000 with methanol, 20 μL of the diluted dose solutions were added to 20 μL of the blank CD1 mice plasma to achieve dose samples. Next, 40 μL standards and 40 μL dose samples were added to 20 μL of IS (100 ng/mL) and 200 μL of acetonitrile for precipitating protein respectively. Then the samples were vortexed for 30 seconds. After centrifugation at 4 degree Celsius, 4000 rpm for 15 minutes, the supernatant was diluted 3 times with water. 10 μL of the diluted supernatant was injected into the LC/MS/MS system for quantitative analysis.
Exemplary compounds 103, 107, 100, 101, and 102 were administered intravenously (5 second injection of 10% HP-b-CD and 40 mM sodium acetate and 40 mM NaCl in water, pH4.5) or intraperitoneally (5% EtOH and 5% Solutol HS15 in D5W(ESD-2)) to 6-8 week old male CD1 mice (3 mice per treatment group for a total of 12 mice) at the time points indicated below in Table 7. The mice had free access to food and water.
Dorsal metatarsal vein samples (30 μL), except that the final sample was acquired via a heart puncture, were taken from the mice at the same the administration time points as shown in Table 7.

T1 sequence (Q05397 whole entry): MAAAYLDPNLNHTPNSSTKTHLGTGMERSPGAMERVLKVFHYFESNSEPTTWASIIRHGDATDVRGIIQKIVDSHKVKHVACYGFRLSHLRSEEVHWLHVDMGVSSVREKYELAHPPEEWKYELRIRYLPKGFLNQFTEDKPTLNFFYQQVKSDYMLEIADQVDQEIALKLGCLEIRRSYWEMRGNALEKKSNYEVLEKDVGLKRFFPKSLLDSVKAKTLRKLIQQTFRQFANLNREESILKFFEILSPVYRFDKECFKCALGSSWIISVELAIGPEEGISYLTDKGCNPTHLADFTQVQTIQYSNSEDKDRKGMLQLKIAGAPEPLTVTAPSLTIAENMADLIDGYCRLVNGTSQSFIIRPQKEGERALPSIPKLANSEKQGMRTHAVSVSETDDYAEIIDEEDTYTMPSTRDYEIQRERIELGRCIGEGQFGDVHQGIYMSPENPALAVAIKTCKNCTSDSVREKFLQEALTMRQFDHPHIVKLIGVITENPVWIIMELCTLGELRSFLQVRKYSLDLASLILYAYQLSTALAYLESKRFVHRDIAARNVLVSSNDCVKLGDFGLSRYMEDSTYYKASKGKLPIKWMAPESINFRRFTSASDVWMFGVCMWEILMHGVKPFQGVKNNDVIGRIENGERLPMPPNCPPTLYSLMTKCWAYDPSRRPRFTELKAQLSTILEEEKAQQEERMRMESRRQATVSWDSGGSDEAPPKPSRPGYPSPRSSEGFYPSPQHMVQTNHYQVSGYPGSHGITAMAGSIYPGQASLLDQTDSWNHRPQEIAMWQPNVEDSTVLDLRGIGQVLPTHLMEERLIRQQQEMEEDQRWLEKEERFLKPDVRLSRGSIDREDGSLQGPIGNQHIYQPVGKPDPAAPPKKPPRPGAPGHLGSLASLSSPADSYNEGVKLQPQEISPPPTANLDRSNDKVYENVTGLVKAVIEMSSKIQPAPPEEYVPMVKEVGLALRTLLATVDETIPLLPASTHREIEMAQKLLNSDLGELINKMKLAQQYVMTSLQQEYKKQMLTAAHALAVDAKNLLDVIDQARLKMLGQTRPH

As to `Cc1ncsc1-c1ccc(CNC(=O)[C@@H]2C[C@@H](O)CN2C(=O)[C@@H](NC(=O)CCOCCOCCOCCOCCOc2ccc(Nc3ncc(C(F)(F)F)c(NCc4cccc(N(C)S(C)(=O)=O)c4)n3)cc2)C(C)(C)C)cc1` [Compound 105, (2S,4R)-1-((S)-17-(tert-butyl)-1-(4-((4-((3-(N-methylmethylsulfonamido)benzyl)amino)-5-(trifluoromethyl)pyrimidin-2-yl)amino)phenoxy)-15-oxo-3,6,9,12-tetraoxa-16-azaoctadecan-18-oyl)-4-hydroxy-N-(4-(4-methylthiazol-5-yl)benzyl)pyrrolidine-2-carboxamide], the IC50 at Fak [1] was 6.1 ± 0.1 nM. Besides, the Dmax at Fak [2] amounted to 91%. Moreover, the DC50 on Fak [2] (half-maximal degradation concentration) amounted to 48.1 nM.

Consider `Cc1ncsc1-c1ccc(CNC(=O)[C@@H]2C[C@H](O)CN2C(=O)[C@@H](NC(=O)CCOCCOc2ccc(Nc3ncc(C(F)(F)F)c(NCc4cccc(N(C)S(C)(=O)=O)c4)n3)cc2)C(C)(C)C)cc1` [Compound 106, (2S,4S)-1-((S)-3,3-dimethyl-2-(3-(2-(4-((4-((3-(N-methylmethylsulfonamido)benzyl)amino)-5-(trifluoromethyl)pyrimidin-2-yl)amino)phenoxy)ethoxy)propanamido)butanoyl)-4-hydroxy-N-(4-(4-methylthiazol-5-yl)benzyl)pyrrolidine-2-carboxamide], for which inhibition on Fak [1] was half-maximal at 11.2 nM (IC50). Further, at Fak [2], the “Fak degradation / effect on Fak levels (in words)” value is on record as “no Fak degradation” and the Dmax was determined as 0%.

Consider “N-(2-((2-(2,6-dioxopiperidin-3-yl)-1,3-dioxoisoindolin-4-yl)oxy)ethyl)-3-(3-(4-((4-((3-(N-methylmethylsulfonamido)benzyl)amino)-5-(trifluoromethyl)pyrimidin-2-yl)amino)phenoxy)propoxy)propanamide [Compound 108]”, for which, in series [3] (IP), the “AUClast (h * ng/mL) IP” value was 208 ng·h/mL and the “T ½ (h) IP” value was determined as 1.10 h. Further, in series [3] (IV), the “AUClast (h * ng/mL) IV” value was 3.80 ng·h/mL and the “T ½ (h) IV” value worked out at 0.058 h.

The record behind these values is US20200038513A1, “MODULATORS OF FAK PROTEOLYSIS AND ASSOCIATED METHODS OF USE” (ARVINAS OPERATIONS, INC., priority 2018, published 2020).
